Legend:
SHP1 = biological target: T1, SHP1 (Homo sapiens, UniProt P29350); experiment: SHP1 catalytic activity in vitro (DiFMUP substrate); assay type: biochemical; settings: for inhibitory effect on SHP1 catalytic activity: at high concentrations
T1 construct: GST; made in house; host or cells: Escherichia coli BL21
Procedure: (§1) Escherichia coli BL21 was used to express SHP1 and SHP2 protein and proteins were purified with GST tag. In total, 15 nM SHP1 or SHP2 purified protein, a test compound (10 μM) or DMSO and reaction buffer in 100 μL constitute the reaction system. DiFMUP (10 μM) was added to the reaction system to initiate the reaction. The inhibitory effects of compounds 1–3 were detected by Varioskan Lux with 355 nm excitation and 460 nm emission wavelengths.

SHP2 [1] = biological target: T2, SHP2 (Homo sapiens, UniProt Q06124); experiment: SHP2 catalytic activity in vitro (DiFMUP substrate); assay type: biochemical; design: GST; made in house; host or cells: Escherichia coli BL21; settings: 15 nM purified SHP2, DiFMUP 10 μM
T2 sequence (Q06124 1-593): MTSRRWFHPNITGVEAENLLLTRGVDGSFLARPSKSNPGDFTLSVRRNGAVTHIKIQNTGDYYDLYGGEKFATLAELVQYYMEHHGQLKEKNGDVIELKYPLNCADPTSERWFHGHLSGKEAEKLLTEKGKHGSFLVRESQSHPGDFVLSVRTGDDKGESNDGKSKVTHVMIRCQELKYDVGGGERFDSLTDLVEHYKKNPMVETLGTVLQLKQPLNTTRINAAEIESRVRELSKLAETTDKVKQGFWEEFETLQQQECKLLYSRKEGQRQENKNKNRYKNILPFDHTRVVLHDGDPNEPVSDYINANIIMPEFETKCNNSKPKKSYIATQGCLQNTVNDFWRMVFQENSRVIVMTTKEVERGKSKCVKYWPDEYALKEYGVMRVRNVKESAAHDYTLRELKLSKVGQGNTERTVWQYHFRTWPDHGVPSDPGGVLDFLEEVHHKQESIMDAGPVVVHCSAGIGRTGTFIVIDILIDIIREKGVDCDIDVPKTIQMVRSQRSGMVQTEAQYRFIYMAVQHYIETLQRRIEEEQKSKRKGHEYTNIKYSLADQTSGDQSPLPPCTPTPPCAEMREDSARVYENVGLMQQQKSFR
Procedure: as §1

A549 cells [2] = experiment: A549 cell wound-healing assay; assay type: cell-based, Human; settings: up to 72 h
Procedure: When the A549 cell covered 80% of cell culture dish, these cells were seeded in 6-well plates at 5 × 10^5 cells/well, respectively. After the cells adhered to the plates, wound formation was performed by 200 μL pipette tips. Then, A549 cells were treated with different concentrations of compound 2 for 72 h. The image of each gap was obtained by Leica TCS SP8 (Leica, Wetzlar, Germany) at 0, 24, 72 h, respectively.

[3] = test system: cleaved caspase-3, 8, 9 and cleaved-PARP; experiment: Western blot of apoptosis-related signaling pathway; assay type: cell-based, Human; settings: A549, 72 h
Procedure: (§2) After compound 2 treatment, RIPA buffer was used to lyse cells’ protein. Equal sample proteins were added in SDS-PAGE, separated with 100 V in 60 min, then transferred into PVDF membranes, and the membranes incubated with corresponding primary antibodies (Huabio, Hangzhou, China). GAPDH or Tubulin served as normal control.

A549 cells [4] = experiment: Cell viability assay (CCK-8); assay type: cell-based, Human
SHP2 [5] = biological target: T2, SHP2; experiment: Cellular thermal shift assay (CETSA); assay type: binding; design: endogenous in cells; host or cells: A549; settings: A549 cell supernatant
Procedure: A total of 549 cells in 12 cm dish were collected and washed with PBS three times. After three rounds of liquid nitrogen-thaw and centrifugation at 13,000× g for 10 min at 4 °C, the cell supernatant was collected. The cell supernatant was divided into two aliquots of 50 μL each. Compound 2 or DMSO was added to each sample. The sample was heated from 50 °C to 62 °C, then cooled for 3 min [33]. Finally, all samples were processed under 4.7.

caspase-3 = experiment: Caspase-3 activity assay (Ac-DEVD-AFC); assay type: cell-based, Human; settings: A549, 72 h
Procedure: Ac-DEVD-AFC, a caspase-3 fluorimetric substrate, was used to detect caspase-3 activity. After 72 h treatment with compound 2, cell supernatants were collected. The 20 μL cell supernatants, 100 μM Ac-DEVD-AFC, and reaction buffer constituted the 100 μL reaction system, and was then incubated at 37 °C for another 1 h. Caspase-3 activity was detected by Varioskan Lux with 405 nm excitation and 510 nm emission wavelengths.

SHP2 [6] = experiment: Western blot of cellular SHP2 / p-SHP2 expression; assay type: cell-based, Human; settings: A549, 72 h
Procedure: as §2

A549 cells [7] = experiment: Apoptosis flow cytometry (Annexin V-FITC/PI); assay type: cell-based, Human; settings: A549, 72 h
Procedure: After 72 h treatment with different concentrations of compound 2, A549 cells were collected and rinsed three times with PBS. A 195 μL Annexin V-FITC buffer, 5 μL Annexin V-FITC, and 10 μL PI were sequentially added to each sample. The apoptotic cells were detected and analyzed by flow cytometry (ACEA NovoCyte, Hangzhou, China).

[8] = test system: p-ERK1/2, PI3K-AKT and STAT3 signaling pathways; experiment: Western blot of ERK, AKT, STAT3 signaling pathway; assay type: cell-based, Human; settings: A549, 72 h
Procedure: as §2

A549 cells [9] = experiment: A549 cell invasion assay (matrigel); assay type: cell-based, Human; settings: 24 h incubation
Procedure: The inner chamber was pre-coated with matrigel. Cells were seeded in the inner chamber with FBS-free medium, and DMEM medium with 5% FBS was added to the outer chamber. After a 24 h treatment with compound 2, 4% paraformaldehyde was used to fix the cells and 0.1% crystal violet was used to stain A549 cells.

T1 sequence (P29350 whole entry): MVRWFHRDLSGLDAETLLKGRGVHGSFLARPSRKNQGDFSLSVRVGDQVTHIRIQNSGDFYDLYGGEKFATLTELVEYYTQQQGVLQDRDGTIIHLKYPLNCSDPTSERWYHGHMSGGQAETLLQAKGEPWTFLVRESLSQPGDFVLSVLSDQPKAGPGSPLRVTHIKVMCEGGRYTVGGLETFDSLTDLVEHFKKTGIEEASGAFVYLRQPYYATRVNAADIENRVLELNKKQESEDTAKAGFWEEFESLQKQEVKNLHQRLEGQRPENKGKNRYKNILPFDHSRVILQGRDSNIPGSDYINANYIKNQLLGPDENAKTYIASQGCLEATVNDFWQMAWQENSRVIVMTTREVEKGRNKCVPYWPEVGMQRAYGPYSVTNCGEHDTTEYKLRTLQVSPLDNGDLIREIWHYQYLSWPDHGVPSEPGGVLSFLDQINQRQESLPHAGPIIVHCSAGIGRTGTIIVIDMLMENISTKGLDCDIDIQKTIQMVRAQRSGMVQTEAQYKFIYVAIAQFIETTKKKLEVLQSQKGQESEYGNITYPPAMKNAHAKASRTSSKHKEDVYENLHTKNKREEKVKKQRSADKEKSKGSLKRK

| Compound | inhibitory effect on SHP1 catalytic activity (SHP1) | IC50 (SHP2 [1]) [µM] | A549 cell migration (A549 cells [2]) | inhibitory effect on SHP1 (SHP1; below 20 μM) | cleaved-PARP [3] | cleaved caspase-3, 8, 9 ([3]; various doses) | A549 cell viability (A549 cells [4]; 24 h treatment) | IC50 (A549 cells [4]; Homo sapiens, A549, CCK-8, 72 h, read-out: IC50 A549 cell proliferation) [µM] | SHP2 stability with increasing concentration (CETSA) (SHP2 [5]) | SHP2 thermal stability (CETSA) (SHP2 [5]; 50 °C to 62 °C) | caspase-3 expression (caspase-3) | cellular SHP2 expression (SHP2 [6]) | expression of SHP2 and phosphorylation of SHP2 (SHP2 [6]) | apoptotic cells (A549 cells [7]) | p-ERK1/2 expression [8] | PI3K-AKT and STAT3 signaling pathways ([8]; various concentrations) | A549 cell invasion ability (A549 cells [9]) |
| --- | --- | --- | --- | --- | --- | --- | --- | --- | --- | --- | --- | --- | --- | --- | --- | --- | --- |
| CC1=C(C)C2=CC(=O)c3c(O)c4c(c(O)c3[C@@]2(C)CC1=O)OC[C@H]4C [Compound 3, Ajudecumin A] | inhibited SHP1 catalytic activity at high concentrations | 20 ± 1.31 | – | – | – | – | – | – | – | – | – | – | – | – | – | – | – |
| CC1=C(C)C2=CC(=O)C3=C(C(=O)c4oc(C)cc4C3=O)[C@@]2(C)CC1 [Compound 1, 12, 16-epoxy-17(15→16), 18(4→3)-diabeo-abieta-3,5,8, 12, 15-pentaene-7, 11, 14-trione] | inhibited SHP1 catalytic activity at high concentrations | 26 ± 1.41 | – | – | – | – | – | – | – | – | – | – | – | – | – | – | – |
| CC1=C(C)C2=CC(=O)c3c(c(O)c4occ(C)c4c3O)[C@@]2(C)CC1 [Compound 2, Ajuforrestin A] | – | 7.01 ± 0.85 | significantly restrained A549 cell migration | no inhibitory effects | activated | up-regulated | did not affect A549 cell viability | 8.68 ± 0.96 | raised SHP2 stability | decrease in SHP2 expression with increasing temperature was suppressed | significant rise in caspase-3 expression in a dose-dependent manner | suppressed SHP2 expression in a dose-dependent manner | down-regulated | obvious increase in apoptotic cells | markedly inhibited p-ERK1/2 expression | obviously inhibited | obviously decreased |

Reference: article PMC9457730, “Ajuforrestin A, an Abietane Diterpenoid from Ajuga ovalifolia var. calanthe, Induces A549 Cell Apoptosis by Targeting SHP2” (Molecules, 2022)
